No end group written: not given here.

Data set [1] concerns primary cortical embryonic neurons. In words: Internalization route with endocytosis inhibitors, neurons. The data set is classed as cell-based, mouse. As to conditions: 300 μM amiloride, 30 minutes preincubation before P4 + siRNA-A488, flow cytometry. The protocol: 1-4 days post-transfection cells were washed carefully three times with 1x PBS. Each well was incubated with 200 µL […]
resuspended in 600 µL of media to neutralize the trypsin and were centrifuged for 15 min at […]. Supernatant was removed, and the pellet was re-suspended in approximately 40 μL of media before Flow Cytometry (BD LSRFortessa) was performed. DAPI (Sigma, 5 µg/mL) was added 1-3 min before measurements were taken to determine the absolute number of dead cells (excitation wavelength of 405 nm). Cell populations were gated based on cell size (FSC), granularity of the cytoplasm (SSC), multiple cells (FSC-W), UV fluorescence (DAPI filter). Percentage of positive cells was calculated from alive cells (DAPI negative). All the samples were measured in triplicates. Results were analyzed using FlowJo software.
After 15 div neural cells were treated with either 5 μg/mL chlorpromazine hydrochloride, 1μg/mL fillipin III from Streptomyces filipinensis, 300 μM amiloride hydrochloride or a combination of them in fresh serum-free medium for 30 minutes before incubated with the peptide (52 μM) + siRNA-A488 (100 nM) for 15h. Samples were analyzed using flow cytometry as described in the previous section.
Western blot/ immunocytochemistry […]
For orientation: Flow cytometry measures light scatter and fluorescence of single cells or particles in a stream.

A short description of data set [2]: Water solubility of peptide. Type of data set: physicochemical.
In data set [3] the test system is primary cortical embryonic neurons. Type of data set: cell-based. The settings on record: 24 h, 104 µM. The protocol: (§1) Dulbecco’s Modified Eagle Medium (DMEM, Biological Industries), 10% normal horse serum (NHS, GIBCO), 1% penicillin-streptomycin (Pen-Strep, Biological Industries) and 2mM L-glutamine (Biological Industries). After centrifugation and re-suspension, cells were plated and grown to confluence at 37°C, 5% CO 2 (approximately 25-30 days in vitro (div)).
(§2) All the experiments were performed using glial cells from the first passage (Ps1). Passage 1 (Ps1) cells were cultured at a density of 2x10^5 cells/cm2 for 15 days in vitro (div) in DMEM, 1% Pen-Strep and 2mM L-glutamine on non-coated culture plastic (for Western blotting, flow cytometry) or glass (for immunocytochemistry). The cell composition and biochemical characterization of control and reference glial conditions have been described previously2.
(§3) Neurons were obtained from embryonic brains, as described3. Briefly, a time pregnant mouse was sacrificed by cervical dislocation and the embryos were extracted at embryonic day 16 (E16). […]
(§4) resuspended in 600 µL of media to neutralize the trypsin and were centrifuged for 15 min at 1.2 rpm. […] Cell populations were gated based on cell size (FSC), granularity of the cytoplasm (SSC), multiple cells (FSC-W), UV fluorescence (DAPI filter). Percentage of positive cells was calculated from alive cells (DAPI negative). All the samples were measured in triplicates. Results were analyzed using FlowJo software. […]

Data set [4] has as its system primary cortical astroglial cells. Type of data set: cell-based. As to conditions: 24 h, 104 µM. As to the method: as §1, §2, §3, §4
In data set [5] the target is T1, Proteinase K (Parengyodontium album, UniProt P06873).
T1 construct: purchased Sigma-Aldrich
T1 sequence (P06873 106-384): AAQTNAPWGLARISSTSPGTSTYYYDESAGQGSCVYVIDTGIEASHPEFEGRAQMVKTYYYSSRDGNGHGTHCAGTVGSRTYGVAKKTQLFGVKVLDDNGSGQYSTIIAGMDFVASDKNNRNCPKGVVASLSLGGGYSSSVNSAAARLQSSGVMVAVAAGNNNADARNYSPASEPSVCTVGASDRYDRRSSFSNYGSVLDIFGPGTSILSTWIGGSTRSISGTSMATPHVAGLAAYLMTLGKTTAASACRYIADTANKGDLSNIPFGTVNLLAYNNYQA
In words: Proteinase K digestion test. Type of data set: in vitro ADME, Tritirachium album. The settings on record: 50 µM peptide, 0.2 µM siRNA, 25 mM HEPES pH 7.4, 24h, 37C, gel. As to the method: (§5) (Inhepar®, 5000 U/mL equivalent to) and Milli -Q® water to a final concentration of 0.01 mg/mL (1 U/mL) in a final volume of 10 μL. Samples were incubated at room temperature for 2h. After incubation, samples were run in a native 6% polyacrylamide electrophoresis gel as described in the section above.
(§6) A solution of 40 µM peptide and 0.2 µM DNA dissolved in 10X DNAse I buffer (Invitrogen) was mixed with DNAse I (Invitrogen) for a final enzyme concentration of 0.003 U/µL. The solution was incubated at 37 C and at each time point, 12 µL were mixed with 2.7 µL of 5X TBE buffer in ice to quench the enzyme. Then an aliquot of 4 M NaCl was added to every time point sample to a final concentration of […] after incubation for 3 days at 4°C the samples were ran in an electrophoresis gel.
(§7) Proteinase K Digestion Test
(§8) A previously prepared solution of 50 µM peptide and 0.2 µM siRNA dissolved in buffer 25 mM HEPES pH 7.4 were incubated during 24h at 37C in presence of Proteinase K from Tritirachium album (Sigma-Aldrich). After this time an aliquot of it was ran in an electrophoresis gel as mentioned above.
(§9) Salt stability of P4-siRNA particles
(§10) Sample solutions of 70 µM P4 peptide and 0.2 µM of siRNA in 25 mM HEPES pH 7.4 were incubated with different concentrations of NaCl (0-300 mM) for 24h at room temperature.
(§11) The samples were run in a native 6% polyacrylamide electrophoresis gel prepared manually. […]

Data set [6] has as its target T2, DNAse I (Bos taurus, UniProt P00639).
T2 construct: purchased Invitrogen
Description: Salt stability and DNAse I digestion of P4-DNA particles. Type of data set: in vitro ADME. As to conditions: versus siRNA particles, DNAse I 0.003 U/µL, 37 C, gel. The protocol:
as §5, §6, §7, §8, §9, §10, §11

T2 sequence (P00639 23-282): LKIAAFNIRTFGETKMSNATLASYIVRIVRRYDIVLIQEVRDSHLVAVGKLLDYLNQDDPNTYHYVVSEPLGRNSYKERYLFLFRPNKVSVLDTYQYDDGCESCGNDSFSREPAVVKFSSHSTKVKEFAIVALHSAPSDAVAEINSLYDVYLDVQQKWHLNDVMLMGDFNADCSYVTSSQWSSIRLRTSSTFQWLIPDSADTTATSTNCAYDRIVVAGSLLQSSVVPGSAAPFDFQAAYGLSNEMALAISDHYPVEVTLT

Regarding `N=C(N)NC(=O)c1nc(Cl)c(N)nc1N` [Amiloride, amiloride], in data set [1], the “reduction of uptake of siRNA, neuronal” value is reported as 80% ± 9.1.
Consider “MPVGSLQELAVQKGWRLPEYTVAQESGPPHKREFTITVRVE [P1]”, for which, in data set [2], the water solubility result is “poor water solubility”.
For the molecule “SIRKLEYEIEELRLRIGGGTFVETGSGTSKQVAKRVAAEKLLTKFKT [P4]”, the “cell survival, neuronal cells” value in data set [3] is given as 89% ± 7. In data set [4], the “cell survival, astroglial cells” value is on record as 88% ± 5.5. Also, the “release of siRNA after proteinase K digestion” value in data set [5] is listed as “can be released after protease digestion”. Moreover, the “salt and enzymatic stability of P4 complexed with dsDNA” value in data set [6] is “lower salt and enzymatic stability”.
